This note sets out measurements from ChEMBL document CHEMBL4371085, “Novel M4 positive allosteric modulators derived from questioning the role and impact of a presumed intramolecular hydrogen-bonding motif in β-amino carboxamide-harboring ligands” (Bioorg Med Chem Lett, 2019).

For data set [1], the target named is T1, Muscarinic acetylcholine receptor M4 (Homo sapiens, UniProt P08173).
T1 sequence (P08173 whole entry): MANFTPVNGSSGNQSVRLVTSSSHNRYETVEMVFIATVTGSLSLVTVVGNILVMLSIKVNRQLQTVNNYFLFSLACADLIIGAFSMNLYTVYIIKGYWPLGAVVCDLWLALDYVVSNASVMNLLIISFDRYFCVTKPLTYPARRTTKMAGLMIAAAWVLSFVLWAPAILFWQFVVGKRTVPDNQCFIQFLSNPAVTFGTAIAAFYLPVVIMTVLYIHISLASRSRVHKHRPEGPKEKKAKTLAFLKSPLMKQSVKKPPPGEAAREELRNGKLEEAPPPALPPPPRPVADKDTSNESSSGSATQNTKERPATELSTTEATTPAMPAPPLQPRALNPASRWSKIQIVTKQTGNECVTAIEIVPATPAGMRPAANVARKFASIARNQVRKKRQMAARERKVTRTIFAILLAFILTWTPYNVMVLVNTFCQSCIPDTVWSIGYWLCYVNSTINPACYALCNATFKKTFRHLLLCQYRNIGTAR
In words: Positive allosteric modulation of Gqi5-fused human M4 AChR assessed as increase in acetylcholine-induced calcium mobilization. It is filed as functional.

Data set [2] has as its target T2, Muscarinic acetylcholine receptor M4 (Homo sapiens) (UniProt P08173).
T2 sequence (whole entry): T1 sequence (P08173 whole entry)
In words: Positive allosteric modulation of Gqi5-fused human M4 AChR assessed as increase in acetylcholine-induced calcium mobilization relative to acetylcholine alone. It is filed as functional. On the technique in general: Calcium flux is commonly read through the fluorescence of an indicator in the cells.

Data set [3] is described as follows: Fraction unbound in rat plasma. It is filed as ADME, cell-free.
A further data set has as its system Cytochrome P450. In words: Inhibition of CYP450 (unknown origin). The format is ADME, protein assay. Particulars: human; call rule not given here.
The target in a further data set is T3, Cytochrome P450 1A2 (Homo sapiens, UniProt P05177).
T3 sequence (P05177 whole entry): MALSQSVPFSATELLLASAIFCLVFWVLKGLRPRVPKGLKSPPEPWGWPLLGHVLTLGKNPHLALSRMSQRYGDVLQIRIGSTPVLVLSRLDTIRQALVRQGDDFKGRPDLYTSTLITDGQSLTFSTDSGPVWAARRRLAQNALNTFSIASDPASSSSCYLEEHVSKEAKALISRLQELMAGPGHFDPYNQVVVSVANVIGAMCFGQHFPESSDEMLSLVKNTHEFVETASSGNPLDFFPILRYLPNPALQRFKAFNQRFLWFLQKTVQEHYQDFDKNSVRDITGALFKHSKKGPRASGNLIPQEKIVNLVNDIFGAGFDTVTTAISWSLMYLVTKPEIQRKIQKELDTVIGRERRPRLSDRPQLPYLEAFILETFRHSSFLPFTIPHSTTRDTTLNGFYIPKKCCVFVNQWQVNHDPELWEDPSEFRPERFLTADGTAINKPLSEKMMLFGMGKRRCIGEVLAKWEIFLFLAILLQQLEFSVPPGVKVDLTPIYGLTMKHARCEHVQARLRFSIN
In words: Inhibition of CYP1A2 (unknown origin). It is filed as ADME.

The next data set has as its target Cytochrome P450 2C9 (Homo sapiens, UniProt P11712). Kind of data set: Inhibition of CYP2C9 (unknown origin). It is filed as ADME.
For a further data set, the target named is P-gp (ABCB1) (Homo sapiens, UniProt P08183). Kind of data set: Substrate activity at human P-gp assessed as efflux ratio. It is filed as ADME. The note with it: not told.
Data set [4] in a line: Brain to plasma partition coefficient, Kp of the compound in rat. The format is ADME, cell-free.

Sequence of Cytochrome P450 2C9 (P11712 whole entry): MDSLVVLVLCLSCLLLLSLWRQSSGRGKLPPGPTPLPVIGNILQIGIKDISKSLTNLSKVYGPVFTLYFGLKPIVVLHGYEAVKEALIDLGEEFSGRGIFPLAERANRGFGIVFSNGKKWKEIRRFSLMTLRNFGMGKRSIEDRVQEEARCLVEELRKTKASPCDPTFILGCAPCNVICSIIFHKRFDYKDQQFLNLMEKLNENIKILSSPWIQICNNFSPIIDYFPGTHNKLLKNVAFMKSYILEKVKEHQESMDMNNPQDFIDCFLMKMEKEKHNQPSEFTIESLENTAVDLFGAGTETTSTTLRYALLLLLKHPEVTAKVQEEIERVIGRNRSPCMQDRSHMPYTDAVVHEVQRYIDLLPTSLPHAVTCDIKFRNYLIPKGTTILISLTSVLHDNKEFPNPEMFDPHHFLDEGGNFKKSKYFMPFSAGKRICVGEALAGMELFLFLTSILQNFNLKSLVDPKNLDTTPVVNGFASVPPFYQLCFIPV
Sequence of P-gp (ABCB1) (P08183 whole entry): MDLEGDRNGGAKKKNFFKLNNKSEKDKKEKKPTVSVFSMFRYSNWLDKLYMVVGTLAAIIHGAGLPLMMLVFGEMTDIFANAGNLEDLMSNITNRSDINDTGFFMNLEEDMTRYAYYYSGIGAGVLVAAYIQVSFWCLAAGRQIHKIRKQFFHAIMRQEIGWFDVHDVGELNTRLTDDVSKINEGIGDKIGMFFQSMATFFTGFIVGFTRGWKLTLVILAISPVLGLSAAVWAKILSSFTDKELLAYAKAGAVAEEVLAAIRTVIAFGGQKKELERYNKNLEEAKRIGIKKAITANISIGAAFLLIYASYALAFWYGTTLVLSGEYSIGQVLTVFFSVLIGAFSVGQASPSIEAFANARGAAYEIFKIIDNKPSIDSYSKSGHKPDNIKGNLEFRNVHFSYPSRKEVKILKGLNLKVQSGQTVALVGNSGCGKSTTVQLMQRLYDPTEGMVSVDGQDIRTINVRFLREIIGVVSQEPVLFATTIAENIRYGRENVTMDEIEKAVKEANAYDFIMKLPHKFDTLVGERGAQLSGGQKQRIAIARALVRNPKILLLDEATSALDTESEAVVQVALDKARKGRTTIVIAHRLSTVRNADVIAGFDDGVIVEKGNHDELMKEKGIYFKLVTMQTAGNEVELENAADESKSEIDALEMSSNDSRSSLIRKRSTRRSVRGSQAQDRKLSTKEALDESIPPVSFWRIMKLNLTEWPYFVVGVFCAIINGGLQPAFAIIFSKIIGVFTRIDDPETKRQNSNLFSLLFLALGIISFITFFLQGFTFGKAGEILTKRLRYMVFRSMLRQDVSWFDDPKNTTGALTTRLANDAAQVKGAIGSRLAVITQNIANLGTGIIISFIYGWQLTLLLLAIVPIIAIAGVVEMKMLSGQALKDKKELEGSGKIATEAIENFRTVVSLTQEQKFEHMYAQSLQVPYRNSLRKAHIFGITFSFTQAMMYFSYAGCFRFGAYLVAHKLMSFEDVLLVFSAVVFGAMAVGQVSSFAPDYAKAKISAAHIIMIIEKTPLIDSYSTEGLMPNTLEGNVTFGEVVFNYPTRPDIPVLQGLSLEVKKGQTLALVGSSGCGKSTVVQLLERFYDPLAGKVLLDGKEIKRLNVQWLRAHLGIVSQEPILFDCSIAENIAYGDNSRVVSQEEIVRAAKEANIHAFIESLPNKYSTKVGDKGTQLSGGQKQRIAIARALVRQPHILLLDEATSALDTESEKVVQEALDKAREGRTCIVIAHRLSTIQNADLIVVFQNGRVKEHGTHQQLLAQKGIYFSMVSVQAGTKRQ

The EC50 is the midpoint of the concentration-response curve. The Emax is the maximal effect, on the per cent scale that the assay sets. Turning to `COc1ccc(CNc2nn(C)c3c2sc2nc(C)c(Cl)c(C)c23)cc1`, in data set [1], the EC50 is above 10000 nM. The Emax in data set [2] worked out at 51%.

As a reminder, the fraction unbound is free concentration divided by total concentration. Regarding `COc1ccc(CNC(=O)c2sc3nnc(C)c(C)c3c2C)cc1F`, in data set [1], the EC50 was found to be 2100 nM. Moreover, the Emax in data set [2] turned out to be 56%. Moreover, the fraction unbound in data set [3] is below 0.005. Further, the “inhibition (INH)” value with Cytochrome P450 is on record as “Active”.

Take `Cc1nnc2sc3c(NCc4ccco4)nn(C)c3c2c1C`: the EC50 in data set [1] turned out to be 690 nM. The Emax in data set [2] is 91%.

For the molecule `Cc1nnc2sc(C(=O)NC3COC3)c(C3CC3)c2c1C`, the EC50 in data set [1] was above 10000 nM. Further, in data set [2], the maximum response (Emax) was determined as 38%. In data set [3], this molecule showed a fraction unbound below 0.005. In the data set on Cytochrome P450, the “inhibition (INH)” value is given as “Active”.

On to `COc1ccc(CNC(=O)c2sc3nc(C)cc(C)c3c2C)cc1`, for which the EC50 in data set [1] was found to be 2700 nM. In addition, the Emax in data set [2] came to 49%. This molecule yielded a fraction unbound in data set [3] below 0.005. Besides, in the data set on Cytochrome P450, the “inhibition (INH)” value is on record as “Active”.

As to `COc1ccc(CNC(=O)c2sc3nnc(C)c(C)c3c2N)cc1F`, the Emax in data set [2] worked out at 75%.

As for `Cc1cc(C)c2c(n1)sc1c(NCC3CCCC3)n[nH]c12`, the EC50 in data set [1] was 3800 nM. The Emax in data set [2] worked out at 65%.

For the molecule `Cc1cc(C)c2c(n1)sc1c(NCc3ccco3)n[nH]c12`, the EC50 in data set [1] came out at 1200 nM. Also, the Emax in data set [2] came out at 76%.

As to `Cc1cc(C)c2c(n1)sc1c(NCc3ccc(F)cc3)n[nH]c12`, the EC50 in data set [1] amounted to 1100 nM. The Emax in data set [2] worked out at 62%.

With `Cc1cc(C)c2c(n1)sc1c(NCc3ccccc3)n[nH]c12`, the EC50 in data set [1] turned out to be 1000 nM. In addition, the Emax in data set [2] was found to be 66%.

`Cc1nc2sc3c(NCc4ccc(F)cc4)nn(C)c3c2c(C)c1Cl`: the EC50 in data set [1] is above 10000 nM. Further, the Emax in data set [2] amounted to 56%.

For the molecule `CSc1ccc(CNC(=O)c2sc3nc(C)cc(C)c3c2C)cc1`, in data set [1], the EC50 was 1500 nM. Besides, the Emax in data set [2] turned out to be 45%. The same molecule gave a fraction unbound in data set [3] below 0.005. For the same molecule, the “inhibition (INH)” value in the data set on Cytochrome P450 is listed as “Active”.

`CCc1c(C(=O)NCc2ccc(S(C)(=O)=O)cc2)sc2nc(C)cc(C)c12`: in data set [1], the EC50 was 2700 nM. In addition, the Emax in data set [2] came to 57%. This molecule also came in with a fraction unbound in data set [3] below 0.005. Also, the “inhibition (INH)” value in the data set with Cytochrome P450 is listed as “Active”.

Usually IC50 stands for the concentration that inhibits the measured activity by half. With `Cc1nc2sc3c(NCc4ccco4)nn(C)c3c2c(C)c1Cl`, the EC50 in data set [1] is 120 nM. Moreover, in data set [2], the Emax came out at 59%. Further, the Fu in data set [3] is given as below 0.001. The IC50 is below 100 nM on Cytochrome P450 1A2 and 1000 nM against Cytochrome P450 2C9.

Take `COc1ccc(CNC(=O)c2sc3nnc(C)c(C)c3c2C2CC2)cc1F`: the EC50 in data set [1] was 5600 nM. The Emax in data set [2] worked out at 35%. This molecule also showed a fraction unbound in data set [3] below 0.005. Further, the “inhibition (INH)” value with Cytochrome P450 was “Active”.

A word on the efflux ratio: it is a quotient of directional permeabilities that is used to spot active efflux. Regarding `Cc1nnc2sc3c(NCc4ccc(S(C)(=O)=O)c(F)c4)nn(C)c3c2c1C`, the EC50 in data set [1] was determined as 160 nM. For the same molecule, the Emax in data set [2] is 58%. In addition, in data set [3], the Fu came out at 0.05. In addition, the INH with Cytochrome P450 is above 30 µM. Also, the efflux ratio at P-gp (ABCB1) is above 10.

For orientation: Kp means tissue or fluid exposure divided by exposure in the circulation. In data set [4], `COc1ccc(CNc2nn(C)c3c2sc2nnc(C)c(C)c23)cc1` gave a Kp of 0.25. For the same molecule, in data set [1], the EC50 stood at 40 nM. Moreover, the maximal effect (Emax) in data set [2] amounted to 79%. In data set [3], this molecule came in with a Fu of 0.02. The INH with Cytochrome P450 was above 30 µM.

In the case of `Cc1nnc2sc3c(NCc4ccc5c(c4)OCCO5)nn(C)c3c2c1C`, the EC50 in data set [1] amounted to 60 nM. Also, the Emax in data set [2] was found to be 91%.

For the molecule `Cc1cc(C)c2c(C)c(C(=O)NCc3ccc(S(C)(=O)=O)cc3)sc2n1`, in data set [1], the half-maximal effective concentration (EC50) amounted to 6400 nM. Besides, the Emax in data set [2] stood at 58%. Moreover, the fraction unbound in data set [3] was below 0.005. In addition, in the data set on Cytochrome P450, the “inhibition (INH)” value was “Active”.

As to `Cc1nc2sc3c(NCC4CC4)nn(C)c3c2c(C)c1Cl`, the EC50 in data set [1] is 230 nM. For the same molecule, the Emax in data set [2] stood at 67%. In data set [3], this molecule registered a Fu below 0.001. Also, the IC50 on Cytochrome P450 1A2 was below 100 nM; at Cytochrome P450 2C9 it was 1000 nM.

As to `COc1ccc(CNc2n[nH]c3c2sc2nc(C)cc(C)c23)cc1`, in data set [1], the EC50 amounted to 2200 nM. For the same molecule, the Emax in data set [2] worked out at 67%. The molecule also came in with a Fu in data set [3] below 0.002. The same molecule showed an INH in the data set with Cytochrome P450 below 5 µM.

Consider `Cc1nc2sc3c(NCc4ccccc4)nn(C)c3c2c(C)c1Cl`, for which the EC50 in data set [1] was above 10000 nM. Further, the Emax in data set [2] stood at 39%.

In the case of `Cc1cc(C)c2c(C)c(C(=O)NCc3ccc4c(c3)CCO4)sc2n1`, in data set [1], the EC50 turned out to be 5900 nM. The Emax in data set [2] worked out at 50%. In data set [3], this molecule yielded a fraction unbound below 0.005. The “inhibition (INH)” value with Cytochrome P450 was “Active”.

As to `Cc1nnc2sc3c(NCC4CC4)nn(C)c3c2c1C`, in data set [1], the EC50 was 620 nM. Also, the Emax in data set [2] came to 84%.

On to `Cc1cc(C)c2c(n1)sc1c(NCC3CC3)n[nH]c12`, for which the EC50 in data set [1] worked out at 2000 nM. In addition, the Emax in data set [2] is 67%.

On to `Cc1cc(C)c2c(C)c(C(=O)NCc3ccc(OC(F)(F)F)cc3)sc2n1`, for which, in data set [1], the EC50 is above 10000 nM. For the same molecule, in data set [2], the Emax was 29%. The molecule further registered a fraction unbound in data set [3] below 0.005. The “inhibition (INH)” value with Cytochrome P450 is “Active”.

For the molecule `Cc1nnc2sc3c(NCC4CCCO4)nn(C)c3c2c1C` (stereo unspecified), the EC50 in data set [1] is 180 nM. For the same molecule, the Emax in data set [2] amounted to 102%.

`CCc1c(C(=O)NCc2ccc(OC)c(F)c2)sc2nnc(C)c(C)c12`: in data set [1], the EC50 came to 2200 nM. Moreover, in data set [2], the Emax amounted to 73%. This molecule also yielded a fraction unbound in data set [3] below 0.005. In addition, the “inhibition (INH)” value in the data set on Cytochrome P450 is “Active”.

With `COc1ccc(CNC(=O)c2cc3c(C)cc(C)nc3s2)cc1`, in data set [1], the EC50 is 5100 nM. Also, in data set [2], the Emax was found to be 53%. Further, in data set [3], the fraction unbound is below 0.005. Also, in the data set with Cytochrome P450, the “inhibition (INH)” value is “Active”.

On to `COc1ccc(CNC(=O)c2cc3c(C)c(C)nnc3s2)cc1F`, for which the EC50 in data set [1] was found to be 1500 nM. The Emax in data set [2] was 66%. This molecule also gave a fraction unbound in data set [3] below 0.005. Moreover, the “inhibition (INH)” value with Cytochrome P450 is “Active”.

For the molecule `Cc1cc(C)c2c(C)c(C(=O)NCc3ccc4c(c3)OCCO4)sc2n1`, the EC50 in data set [1] amounted to 2100 nM. Moreover, in data set [2], the Emax amounted to 56%. In data set [3], the fraction unbound is below 0.005. In the data set on Cytochrome P450, the “inhibition (INH)” value is recorded as “Active”.
